Data set [1] concerns constitutive ERK phosphorylation in HCT-116 cells (KRAS G13D). Put plainly: HCT-116 AlphaLISA SureFire pERK1/2 Cellular Assay. The format is cell-based. The conditions noted are these: Homo sapiens. Here is the method: HCT-116 AlphaLISA SureFire pERK1/2 Cellular Assay
(§1) The human HCT-116 colorectal carcinoma cell line (ATCC CCL-247) endogenously expresses the KRAS^G13D mutation, which leads to constitutive activation of the MAP kinase pathway and phosphorylation of ERK. […] Assay read outs took place 2 or 24 hours after dosing with compounds. On the first day, HCT-116 cells were harvested, resuspended in growth medium (McCoys5A with Glutamax (Life Technologies 36600021) and 10% heat-inactivated fetal bovine serum (Sigma F9665)), and counted. Cells were plated in 100 μl per well in each well of a 96-well culture dish (Sigma CLS3598) to a final density of 30,000 (2 hr read) or 15,000 (24 hr read) cells per well and incubated over night at 37° C. and 5% CO2. On day 2, the growth medium was exchanged for dosing medium (McCoys5A with Glutamax (Life Technologies 36600021) and 1% heat-inactivated fetal bovine serum (Sigma F9665)) and the cells were dosed with compounds to produce a 10-point dose response, where the top concentration was 1 μM and subsequent concentrations were at ⅓ log dilution intervals. A matched DMSO control was included. The cells were subsequently incubated for either 2 or 24 hours at 37° C. and 5% CO2. After incubation, media was removed and the cells were incubated with lysis buffer containing phosphatase inhibitors for 15 minutes at room temperature. Cell lysates were transferred to a ½ area 96 well white Optiplate™ (Perkin Elmer 6005569) and incubated with anti-mouse IgG acceptor beads, a biotinylated anti-ERK1/2 rabbit antibody recognizing both phosphorylated and non-phosphorylated ERK1/2, a mouse antibody targeted to the Thr202/Tyr204 epitope and recognizing phosphorylated ERK proteins only, and streptavidin-coated donor beads. The biotinylated antibody binds to the streptavidin-coated donor beads and the phopsho-ERK1/2 antibody binds to the acceptor beads. Plates were read on an EnVision reader (Perkin Elmer) and excitation of the beads at 680 nm with a laser induced the release of singlet oxygen molecules from the donor beads that trigger energy transfer to the acceptor beads in close proximity, producing a signal that can be measured at […]. Both antibodies bound to phosphorylated ERK proteins, bringing the donor and acceptor beads into close proximity. All data were analyzed using the Dotmatics or GraphPad Prism software packages. Inhibition of ERK phosphorylation was assessed by determination of the absolute IC50 value, which is defined as the concentration of compound required to decrease the level of phosphorylated ERK proteins by 50% when compared to DMSO control.

Data set [2] is described as follows: Hepatocyte Stability Assay (HLH). It counts as in vitro ADME. The conditions noted are these: human hepatocytes, 0.5×10^6 cells/mL, 1 μM compound, 37° C. Here is the method:
Hepatocyte Stability Assay
Hepatocyte stability studies were performed manually using the substrate depletion approach. Compounds were incubated at 37° C. with cryo-preserved mouse (Bioreclamation) or human (Corning) hepatocytes at a cell density of 0.5×10^6 cells/mL and a final compound concentration of 1 μM. Sampling was performed at defined timepoints and the reaction was terminated by adding to ice-cold organic solvent. Compound concentrations were determined by LC-MS/MS analysis. The natural log of the percentage of compound remaining was plotted against each time point and the slope determined. The half-life (t1/2) and CLint were calculated using Equations 1 and 3, respectively. Data analysis was performed using Excel (Microsoft, USA).
HLH (human liver hepatocytes) and MLH (mouse liver heptaocytes) stability assay results are described in Table 34C.

Data set [3] in a line: Microsomal Stability Assay (MLM). The format is in vitro ADME. The following applies: mouse liver microsomes, 0.5 mg/mL protein, 1 μM compound, 37° C. Here is the method:
Microsomal Stability Assay
The stability studies were performed manually using the substrate depletion approach. Test compounds were incubated at 37° C. with cryo-preserved mouse or human liver microsomes (Corning) at a protein concentration of 0.5 mg·mL^−1 and a final substrate concentration of 1 μM. Aliquots were removed from the incubation at defined timepoints and the reaction was terminated by adding to ice-cold organic solvent. Compound concentrations were determined by LC-MS/MS analysis. The natural log of the percentage of compound remaining was plotted against each time point and the slope determined. The half-life (t1/2) and CLint were calculated using Equations 1 and 2, respectively. Data analysis was performed using Excel (Microsoft, USA).
HLM (human liver microsomes) and MLM (mouse liver microsomes) stability assay results are described in Table 34C.

Data set [4] deals with constitutive ERK phosphorylation in WiDr cells (BRAF V600E). Put plainly: WiDr AlphaLISA SureFire pERK1/2 Cellular Assay. The format is cell-based. The following applies: Homo sapiens. On the procedure:
[Worded in the source for another cell line; used here, by the source, with some conditions changed.] as §1
WiDr AlphaLISA SureFire pERK1/2 Cellular Assay […]

Data set [5] can be described thus: Plasma Protein Binding Assay (hPPB). The conditions noted are these: human plasma, equilibrium dialysis, 5 μM, 4 hours, 37° C. The format is in vitro ADME. On the procedure:
(§2) Plasma Protein Binding Assay
(§3) The plasma protein binding was determined by the equilibrium dialysis method. A known concentration of compound (5 μM) in previously frozen human or mouse plasma (Sera Labs) was dialysed against phosphate buffer using a RED device (Life Technologies) for 4 hours at 37° C. The concentration of compound in the protein containing (PC) and protein free (PF) sides of the dialysis membrane were determined by LC-MS/MS and the % free compound was determined by equation 4. Data analysis was performed using Excel (Microsoft, USA).
(§4) hPPB (human plasma protein binding) and mPPB (mouse plasma protein binding) results are described in Table 34D.

The nature of data set [6]: Plasma Protein Binding Assay (mPPB). The format is in vitro ADME. The following applies: mouse plasma, equilibrium dialysis, 5 μM, 4 hours, 37° C. On the procedure: as §2, §3, §4
The mark [7] stands for this setting: HCT-116, 2 h, read-out: PERK HCT116 (2 hr) Abs plC50.
Setting [8] is: HCT-116, 24 h, read-out: pERK HCT116 (24 hr) Abs plC50.
Setting [9] is: WiDr, 2 h, read-out: PERK WiDr (2 hr) Abs plC50.

Where two headings read alike, the source gives them in different places.

Regarding `O=C1CCc2c(Oc3ccc4c(c3)CC(c3ncc(-c5ccc(F)cc5)[nH]3)CO4)ccnc2N1` (racemic) [A-rac], the IC50 is 0.0741 µM in data set [1] (setting [7]), 0.0871 µM in data set [1] (setting [8]) and 0.0562 µM in data set [4] (setting [9]). This compound yielded a hepatocyte CLint at 1 µM in data set [2] of 4.6 µL/min/1e6 cells. Further, in data set [3], the microsomal CLint at 1 µM came to 30.6 µL/min/mg. The “hPPB (% free)” value in data set [5] came out at 0.5 % free. The “mPPB (% free)” value in data set [6] is 1.8 % free.
`O=C1CCc2c(Oc3ccc4c(c3)C[C@@H](c3nc(-c5ccc(F)cc5)c[nH]3)CO4)ccnc2N1` (single isomer, unassigned) [Compound A-1]: the IC50 was 0.049 µM in data set [1] (setting [7]), 0.0955 µM in data set [1] (setting [8]) and 0.0457 µM in data set [4] (setting [9]). In data set [2], this compound showed a hepatocyte CLint at 1 µM of 26.8 µL/min/1e6 cells. In addition, in data set [3], the intrinsic clearance (microsomal CLint) at 1 µM was determined as 16 µL/min/mg. Besides, the “hPPB (% free)” value in data set [5] turned out to be 0.5 % free. The “mPPB (% free)” value in data set [6] is on record as 0.8 % free.
On to `O=C1CCc2c(Oc3ccc4c(c3)CC(c3nc(-c5cccs5)c[nH]3)CO4)ccnc2N1` (racemic) [B-rac], for which the IC50 in data set [1] (HCT-116, HCT116 cells, 2 hr, absolute pIC50, read-out: PERK HCT116 (2 hr) Abs plC50 (converted)) was 0.0191 µM; in data set [1] (HCT-116, HCT116 cells, 24 hr, absolute pIC50, read-out: pERK HCT116 (24 hr) Abs plC50 (converted)) it was 0.024 µM; in data set [4] (WiDr cells, 2 hr, absolute pIC50, read-out: PERK WiDr (2 hr) Abs plC50 (converted)), 0.0447 µM. In data set [2], this compound had a hepatocyte CLint at 1 µM of 11.5 µL/min/1e6 cells. In addition, the microsomal CLint at 1 µM in data set [3] is 58.8 µL/min/mg. Further, in data set [5], the “hPPB (% free)” value stood at 0.7 % free. Besides, the “mPPB (% free)” value in data set [6] turned out to be 0.7 % free.
Turning to `O=C1CCc2c(Oc3ccc4c(c3)C[C@H](c3nc(-c5ccc(F)cc5)c[nH]3)CO4)ccnc2N1` (single isomer, unassigned) [Compound A-2], the figures for the IC50 in data set [1] (setting [7]), in data set [1] (setting [8]) and in data set [4] (setting [9]) were 0.0692 µM, 0.115 µM and 0.162 µM, respectively. Besides, the hepatocyte CLint at 1 µM in data set [2] came to 11.4 µL/min/1e6 cells. For the same compound, the microsomal CLint at 1 µM in data set [3] worked out at 80.1 µL/min/mg. In addition, the “hPPB (% free)” value in data set [5] is 0.7 % free. Besides, the “mPPB (% free)” value in data set [6] is given as 0.9 % free.

For the origin of these results see patent publication US20260049079A1, “CHIRAL SYNTHESIS OF FUSED BICYCLIC RAF INHIBITORS” (Jazz Pharmaceuticals Ireland Limited, priority 2020, published 2026).
